Source: patent publication US12257243B2, “5-hydroxy-7-oxabicyclo[2.2.1]heptane-2-carboxamide derivatives for inducing chondrogenesis for treating joint damage” (NOVARTIS AG, priority 2018, dated 2025)
pIC50: −log10 of the molar value.

System: ALP in normal human articular chondrocytes (NHACs)
Test: Alkaline Phosphatase (ALP) activity assay (staining and quantitation) in NHACs, prevention of chondrocyte hypertrophy
Assay type: cell-based
Conditions: Chondrocyte, 288 h, human IL-1 beta 10 ng/mL, 12 days; for pIC50: Fast Blue RR staining, high content imaging, read-out: ALP in NHAC IC50; for Emax: value in parentheses, read-out: ALP in NHAC (% Efficacy)
Outline: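 Hypertrophy readout: ALP staining (Fast Blue RR with naphthol AS-MX phosphate) plus Hoechst, imaged at 561 nm and/or quantified by high-content multiwavelength cell scoring. Before staining, NHACs (7,500/well, DMEM/10% FBS) were exposed to compound for 5 h, then cultured with 10 ng/mL IL-1β for 12 days at 37 °C.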

Compound | pIC50 | Emax [%]
N#Cc1ccc(C(F)(F)F)cc1NC(=O)[C@@H]1[C@@H](c2cccc(C(F)(F)F)c2)[C@H]2O[C@@H]1C[C@@H]2O (racemic) [Example 48, rac-(1R,2R,3S,4R,5S)—N-(2-cyano-5-(trifluoromethyl)phenyl)-5-hydroxy-3-(3-(trifluoromethyl)phenyl)-7-oxabicyclo[2.2.1]heptane-2-carboxamide] | 7.06 | 92
Cn1cc([C@H]2[C@H]3O[C@H](C[C@@H]3O)[C@@H]2C(=O)Nc2cc(C(F)(F)F)ccc2C#N)c(C(F)(F)F)n1 (racemic) [Example 49, rac-(1R,2R,3S,4R,5S)—N-(2-cyano-5-(trifluoromethyl)phenyl)-5-hydroxy-3-(1-methyl-3-(trifluoromethyl)-1H-pyrazol-4-yl)-7-oxabicyclo[2.2.1]heptane-2-carboxamide] | 6.28 | 96
Cn1cc([C@H]2[C@H]3O[C@H](C[C@@H]3O)[C@@H]2C(=O)Nc2cc(C(F)(F)F)cc(C(F)(F)F)c2)c(C(F)(F)F)n1 (racemic) [Example 50, rac-(1R,2R,3S,4R,5S)—N-(3,5-bis(trifluoromethyl)phenyl)-5-hydroxy-3-(1-methyl-3-(trifluoromethyl)-1H-pyrazol-4-yl)-7-oxabicyclo[2.2.1]heptane-2-carboxamide] | 5.64 | 101
Cn1cc([C@H]2[C@H]3O[C@H](C[C@@H]3O)[C@@H]2C(=O)Nc2ccc(C#N)c(C(F)(F)F)c2)c(C(F)(F)F)n1 (racemic) [Example 51, rac-(1R,2R,3S,4R,5S)—N-(4-cyano-3-(trifluoromethyl)phenyl)-5-hydroxy-3-(1-methyl-3-(trifluoromethyl-1H-pyrazol-4-yl)-7-oxabicyclo[2.2.1]heptane-2-carboxamide] | < 4.52 | 34
Cn1cc([C@H]2[C@H]3O[C@H](C[C@@H]3O)[C@@H]2C(=O)Nc2cc(C(F)(F)F)ccc2F)c(C(F)(F)F)n1 (racemic) [Example 52, rac-(1R,2R,3S,4R,5S)—N-(2-fluoro-5-(trifluoromethyl)phenyl)-5-hydroxy-3-(1-methyl-3-(trifluoromethyl)-1H-pyrazol-4-yl)-7-oxabicyclo[2.2.1]heptane-2-carboxamide] | 5.38 | 73
Cn1cc([C@H]2[C@H]3O[C@H](C[C@@H]3O)[C@@H]2C(=O)Nc2ccc(Cl)c(C(F)(F)F)c2)c(C(F)(F)F)n1 (racemic) [Example 53, rac-(1R,2R,3S,4R,5S)—N-(4-chloro-3-(trifluoromethyl)phenyl)-5-hydroxy-3-(1-methyl-3-(trifluoromethyl)-1H-pyrazol-4-yl)-7-oxabicyclo[2.2.1]heptane-2-carboxamide] | 5.14 | 86
Cc1ccc(C(F)(F)F)cc1NC(=O)[C@@H]1[C@@H](c2cn(C)nc2C(F)(F)F)[C@H]2O[C@@H]1C[C@@H]2O (racemic) [Example 54, rac-(1R,2R,3S,4R,5S)-5-hydroxy-3-(1-methyl-3-(trifluoromethyl)-1H-pyrazol-4-yl)-N-(2-methyl-5-(trifluoromethyl)phenyl)-7-oxabicyclo[2.2.1]heptane-2-carboxamide] | 5.39 | 52
Cn1cc([C@H]2[C@H]3O[C@H](C[C@@H]3O)[C@@H]2C(=O)Nc2ccc(C(F)(F)F)c(F)c2)c(C(F)(F)F)n1 (racemic) [Example 55, rac-(1R,2R,3S,4R,5S)—N-(3-fluoro-4-(trifluoromethylphenyl)-5-hydroxy-3-(1-methyl-3-(trifluoromethyl)-1H-pyrazol-4-yl)-7-oxabicyclo[2.2.1]heptane-2-carboxamide] | 4.80 | 65
Cn1cc([C@H]2[C@H]3O[C@H](C[C@@H]3O)[C@@H]2C(=O)Nc2cccc(C(F)(F)F)c2F)c(C(F)(F)F)n1 (racemic) [Example 57, rac-(1R,2R,3S,4R,5S)—N-(2-fluoro-3-(trifluoromethyl)phenyl)-5-hydroxy-3-(1-methyl-3-(trifluoromethyl-1H-pyrazol-4-yl)-7-oxabicyclo[2.2.1]heptane-2-carboxamide] | < 4.52 | 50
Cn1cc([C@H]2[C@H]3O[C@H](C[C@@H]3O)[C@@H]2C(=O)Nc2ccc(C(F)(F)F)c(Cl)c2)c(C(F)(F)F)n1 (racemic) [Example 58, rac-(1R,2R,3S,4R,5S)—N-(3-chloro-4-(trifluoromethyl)phenyl)-5-hydroxy-3-(1-methyl-3-(trifluoromethyl)-1H-pyrazol-4-yl)-7-oxabicyclo[2.2.1]heptane-2-carboxamide] | 5.00 | 102
CC(C)n1cc([C@H]2[C@H]3O[C@H](C[C@@H]3O)[C@@H]2C(=O)Nc2cccc(C(F)(F)F)c2)c(C(F)(F)F)n1 (racemic) [Example 59, rac-(1R,2R,3S,4R,5S)-5-hydroxy-3-(1-isopropyl-3-(trifluoromethyl)-1H-pyrazol-4-yl)-N-(3-(trifluoromethyl)phenyl)-7-oxabicyclo[2.2.1]heptane-2-carboxamide] | 4.85 | 70
Cc1ccc(NC(=O)[C@@H]2[C@@H](c3cc(C(F)(F)F)nn3C)[C@H]3O[C@@H]2C[C@@H]3O)cc1C(F)(F)F (racemic) [Example 60, rac-(1R,2R,3S,4R,5S)-5-hydroxy-3-(1-methyl-3-(trifluoromethyl)-1H-pyrazol-5-yl)-N-(4-methyl-3-(trifluoromethyl)phenyl)-7-oxabicyclo[2.2.1]heptane-2-carboxamide] | 4.89 | 81
Cn1nc(C(F)(F)F)cc1[C@H]1[C@H]2O[C@H](C[C@@H]2O)[C@@H]1C(=O)Nc1cccc(C(F)(F)F)c1 (racemic) [Example 61, rac-(1R,2R,3S,4R,5S)-5-hydroxy-3-(1-methyl-3-(trifluoromethyl)-1H-pyrazol-5-yl)-N-(3-(trifluoromethyl)phenyl)-7-oxabicyclo[2.2.1]heptane-2-carboxamide] | 4.68 | 46
Cn1nc(C(F)(F)F)cc1[C@H]1[C@H]2O[C@H](C[C@@H]2O)[C@@H]1C(=O)Nc1ccc(C(F)(F)F)cc1 (racemic) [Example 62, rac-(1R,2R,3S,4R,5S)-5-hydroxy-3-(1-methyl-3-(trifluoromethyl)-1H-pyrazol-5-yl)-N-(4-(trifluoromethyl)phenyl)-7-oxabicyclo[2.2.1]heptane-2-carboxamide] | 4.80 | 73
O=C(Nc1cccc(C(F)(F)F)c1)[C@@H]1[C@@H](c2ccnc(C(F)(F)F)c2)[C@H]2O[C@@H]1C[C@@H]2O (racemic) [Example 63, rac-(1R,2R,3S,4R,5S)-5-hydroxy-N-(3-(trifluoromethyl)phenyl)-3-(2-(trifluoromethyl)pyridin-4-yl)-7-oxabicyclo[2.2.1]heptane-2-carboxamide] | 4.74 | 44
Cc1ccc(NC(=O)[C@@H]2[C@@H](c3ccnc(C(F)(F)F)c3)[C@H]3O[C@@H]2C[C@@H]3O)cc1C(F)(F)F (racemic) [Example 64, rac-(1R,2R,3S,4R,5S)-5-hydroxy-N-(4-methy-3-(trifluoromethyl)phenyl-3-(2-(trifluoromethyl)pyridin-4-yl)-7-oxabicyclo[2.2.1]heptane-2-carboxamide] | 4.89 | 83
Cc1cc(NC(=O)[C@@H]2[C@@H](c3ccnc(C(F)(F)F)c3)[C@H]3O[C@@H]2C[C@@H]3O)cc(C(F)(F)F)c1 (racemic) [Example 65, rac-(1R,2R,3S,4R,5S)-5-hydroxy-N-(3-methyl-5-(trifluoromethyl)phenyl)-3-(2-(trifluoromethyl)pyridin-4-yl)-7-oxabicyclo[2.2.1]heptane-2-carboxamide] | 4.70 | 57
O=C(Nc1ccc(C(F)(F)F)cc1)[C@@H]1[C@@H](c2ccnc(C(F)(F)F)c2)[C@H]2O[C@@H]1C[C@@H]2O (racemic) [Example 66, rac-(1R,2R,3S,4R,5S)-5-hydroxy-N-(4-(trifluoromethyl)phenyl)-3-(2-(trifluoromethyl)pyridin-4-yl)-7-oxabicyclo[2.2.1]heptane-2-carboxamide] | 4.82 | 66
COc1cc([C@H]2[C@H]3O[C@H](C[C@@H]3O)[C@@H]2C(=O)Nc2ccc(C(F)(F)F)cc2)ccn1 (racemic) [Example 67, rac-(1R,2R,3S,4R,5S)-5-hydroxy-3-(2-methoxypyridin-4-yl)-N-(4-(trifluoromethyl)phenyl)-7-oxabicyclo[2.2.1]heptane-2-carboxamide] | < 4.52 | 27
COc1cc([C@H]2[C@H]3O[C@H](C[C@@H]3O)[C@@H]2C(=O)Nc2ccc(C)c(C(F)(F)F)c2)ccn1 (racemic) [Example 68, rac-(1R,2R,3,4R,5S)-5-hydroxy-3-(2-methoxypyridin-4-yl)-N-(4-methyl-3-(trifluoromethyl)phenyl)-7-oxabicyclo[2.2.1]heptane-2-carboxamide] | < 4.52 | 31
COc1cc([C@H]2[C@H]3O[C@H](C[C@@H]3O)[C@@H]2C(=O)Nc2cc(C)cc(C(F)(F)F)c2)ccn1 (racemic) [Example 69, rac-(1R,2R,3S,4R,5S)-5-hydroxy-3-(2-methoxypyridin-4-yl)-N-(3-methyl-5-(trifluoromethylphenyl)-7-oxabicyclo[2.2.1]heptane-2-carboxamide] | 4.60 | 29
COc1cc([C@H]2[C@H]3O[C@H](C[C@@H]3O)[C@@H]2C(=O)Nc2cccc(C(F)(F)F)c2)ccn1 (racemic) [Example 70, rac-(1R,2R,3S,4R,5S)-5-hydroxy-3-(2-methoxypyridin-4-yl)-N-(3-(trifluoromethyl)phenyl)-7-oxabicyclo[2.2.1]heptane-2-carboxamide] | < 4.52 | 13
